# Assays:
# HUVEC cells = test: Capillary tube formation on a Matrigel; format: cell-based, human; settings: for formation of capillary tube like structures: 20 μM and 40 μM, comparative assay; for antiangiogenic activity in the tube-like formation assay in HUVEC cells: overall conclusion
# Protocol: The formation of capillary tube like structures by HUVEC cells was analyzed on 24-well cell culture plates coated with an extracellular membrane matrix (Matrigel; BD Biosciences).
# Matrigel was thawed at 4° C. Using precooled plates and tips, 100 μl/well of Matrigel was distributed and allowed to gelify at 37° C. for at least 30 min. Cells were seeded on the polymerized Matrigel (5 to 8×10^4 cells/well). The plate was incubated at 37° C., and tube formation was observed under a optic inverted microscope. Digital pictures were taken at different times with a camera. Tubular structures were quantified by manual counting of low power fields (25×) and inhibition percentage was expressed using untreated wells as 100%.
# The formation of capillary tube-like structures by HUVEC cells was analyzed on 24-well cell culture plates coated with an extracellular membrane matrix (Matrigel; BD Biosciences). Matrigel was thawed at 4° C. Using precooled plates and tips, 100 μl/well of Matrigel was distributed and allowed to gelify at 37° C. for at least 30 min. Cells were seeded on the polymerized Matrigel (5 to 8×10^4 cells/well) in absence and presence of concentrations of 20 μM and 40 μM of each compound. The plate was incubated at 37° C., and tube formation was observed under an optic inverted microscope. Compound 1 was used as positive control.
# HSV-1 = settings: murine model of HSV-1 corneal infection; previously reported; cited from earlier work
# TNF-α [1] = settings: human epithelial cells derived from ocular tissues; earlier work; cited from earlier work
# IL-6 [2] = settings: human epithelial cells derived from ocular tissues; earlier work; cited from earlier work
# TNF-α [3] = settings: LPS-stimulated macrophages in vitro; earlier work; cited from earlier work
# TNF-α [4] = test: TNF-α secretion in LPS-activated macrophages; format: cell-based; settings: Macrophage, read-out: inhibitory concentration 50% (IC50), TNF-α secretion
# IL-6 [5] = test: IL-6 secretion in LPS-stimulated J774A.1 macrophages (ELISA); format: cell-based, murine; settings: J774A.1 stimulated with 100 ng/ml LPS 8 h, 40 μM
# Protocol: J774A.1 cells grown in 24-well plates were incubated at 37° C. with 100 ng/ml of LPS, in duplicate. After 8 h, supernatants were harvested and murine IL-6 was quantified by commercial ELISA sets (BD OptEIA™, Becton Dickinson, USA) according to manufacturer instructions.
# NF-κB p65 subunit = test: NF-κB p65 nuclear translocation in LPS-stimulated J774A.1 cells (IFI); format: cell-based, murine; settings: J774A.1 induced with LPS 8 h, 40 μM (LPS only 79.4±1.2)
# Protocol: J774A.1 cells were grown on coverslips in 24-well plates and stimulated with 100 ng/ml LPS (Sigma) in RPMI without SFB, for 8 h at 37° C.
# After incubation, cells were fixed in methanol at −20° C. for 10 min, and processed for indirect immunofluorescence (IFI) with antibodies directed against the glycoprotein D (gD) of HSV-1 and/or the p65 subunit of NF-κB. After three washes with PBS, the coverslips were inverted on a drop of a 1/100 dilution of the first antibody, mouse monoclonal anti-gD and/or rabbit polyclonal anti p65 (Santa Cruz Biotechnology) and incubated for 30 min at 37° C., and then subjected to three additional washes with PBS. […]
# The images obtained with a 40× magnification were imported into NIH Image J 1.34s program (designed by Wayne Rasband, NIMH, Bethesda). […] We analyzed the total and nuclear fluorescence of the individual cells and a mean fluorescence density was obtained for each. To compare the distribution of fluorescence within the cell, the results were analyzed in a spreadsheet (Excel®). The total fluorescence intensity or nuclear density was calculated as the total or nuclear average per total or nuclear area, respectively. Then, we calculated the percentage of nuclear intensity or the percentage of nuclear intensity with respect to the total intensity for each cell. […]
structure (smiles),measurement,setting,value
CC[C@@H](C(C)C)[C@H](O)[C@@H](O)[C@@H](C)[C@H]1CCC2C3C[C@H](F)C4=CC(=O)CC[C@]4(C)C3CC[C@@]21C (stereo partly shown) [Compound III],formation of capillary tube like structures,HUVEC cells,develop the formation of capillary tube-like structures in same manner than control cells without treatment
same,antiangiogenic activity in the tube-like formation assay in HUVEC cells,HUVEC cells,not present
"CC[C@@H](C(C)C)[C@H](O)[C@@H](O)[C@@H](C)[C@H]1CC[C@H]2[C@@H]3CCC4=CC(=O)C=C[C@]4(C)[C@H]3CC[C@]12C [Compound 2, (22S,23S)-22,23-dihydroxystigmasta-1,4-dien-3-one]",formation of capillary tube like structures,HUVEC cells,showed inhibitory activity
CC[C@@H](C(C)C)[C@H](O)[C@@H](O)[C@@H](C)[C@H]1CCC2C3C[C@H](F)C4=CC(=O)C=C[C@]4(C)C3CC[C@@]21C (stereo partly shown) [Compound IV],formation of capillary tube like structures,HUVEC cells,develop the formation of capillary tube-like structures in same manner than control cells without treatment
same,antiangiogenic activity in the tube-like formation assay in HUVEC cells,HUVEC cells,not present
"CC[C@@H](C(C)C)[C@H](O)[C@@H](O)[C@@H](C)[C@H]1CC[C@H]2[C@@H]3CC(=O)[C@@]4(O)C[C@@H](Br)CC[C@]4(C)[C@H]3CC[C@]12C [Compound 6b, (22S,23S)-3β-bromo-5α,22,23-trihydroxystigmastan-6-one]",anti-HSV-1 activity in vivo,HSV-1,does not exert an anti-HSV-1 activity in vivo
same,incidence of HSK,HSV-1,significantly decreases
same,secretion of TNF-α,TNF-α [1],modulates
same,secretion of IL-6,IL-6 [2],modulates
same,production of TNF-α,TNF-α [3],hinders
"C[C@@H]1C[C@H]2[C@@H]3CCC4=CC(=O)C=C[C@]4(C)[C@@]3(F)[C@@H](O)C[C@]2(C)[C@@]1(O)C(=O)CO [DEX, Dexamethasone, reference compound]",IC50,TNF-α [4],48 µM
same,IL-6 level,IL-6 [5],637.1 ± 3.8 pg/mL
same,percentage of cells positive for NF-κB translocation to the nucleus,NF-κB p65 subunit,100%

# From patent US9187518B2, “Antiangiogenic brassinosteroid compounds” (CONSEJO NACIONAL DE INVESTIGACIONES CIENTIFICAS Y TECNICAS …, priority 2011, dated 2015)
